Laboratory results as given in patent publication US20070219212A1, “Pyranouidole Derivatives and the Use Thereof for the Treatment of Hepatitis C Virus Infection or Disease” (priority 2004, published 2007).
Where two headings read alike, the source gives them in different places.

Key:
[1] = molecular target: T1, NS5B from the BK strain (genotype 1b) (Hepatitis C virus genotype 1b, UniProt P26663); test: Hepatitis C polymerase (NS5B, BK strain) inhibition, radioactive filter assay; assay type: biochemical; details: NS5B BK strain (genotype 1b)
T1 construct: NS5B from the BK strain (genotype 1b) is expressed in E coli as a protein in which the 21 C-terminal amino acids are replaced; made in house; host or cells: E. coli
Description: (§1) The ability of the compounds of the present invention to inhibit Hepatitis C Polymerase was established by the following experimental procedure:
NS5B from the BK strain (genotype 1b) is expressed in E coli as a protein in which the 21 C-terminal amino acids are replaced with a short linker and a hexahistidine tag ([…]). The purified protein is mixed with radioactive nucleotides and allowed to replicate a heteropolymeric RNA substrate, primed by an endogenous short hairpin, resulting in an approximately 760 nt product. The radioactive product is captured on a filter and quantitated after removal of the unincorporated nucleotides.
(§2) • 0.5M Na Phosphate buffer. Per liter, weigh 134 gr Na2HPO4.7H2O, add water to 900 ml. Adjust pH to 7.0 with phosphoric acid. Top off with water to 1 L. • Dilute nucleotides 1:1000 to 10 μM (GTP and CTP) or 1:100 to 100 μM (ATP and UTP) into RNase free water. Procedure: • (1) Compounds 10 μl at […] in 15% dimethylsulfoxide (DMSO) When starting from 100 μg/ml compound stock in 1% DMSO: Dispense 5 μl 30% DMSO per well Dispense 5 μl compound (100 μg/ml) per well. When starting from 50 μg/ml compound stock in 15% DMSO: Add 10 μl compound per well.
(§3) Add 20 μl enzyme mix into each well of the assay plate. Incubate compound and enzyme at room temperature for 15 minutes • (3) Template mix—prepare ahead
(§4) Spin down a tube of RNA (5 μg/tube stored in 75% ethanol and 0.3 M sodium acetate) in a microcentrifuge for 20 minutes at 4° C. One tube is enough for 1-1.5 plates. Remove as much ethanol from the tube as possible by inverting the tube. Be gentle, pellet RNA may not adhere to the tube. Vacuum dry the RNA. Resuspend the RNA by adding 1 ml of DEPC water, close the cap of the tube tightly. To dissolve RNA, incubate RNA solution on ice for ˜60 minutes and gently vortex. Spin briefly to ensure all RNA solution is down to the bottom of the tube before opening cap. Gently transfer RNA solution into a 5 ml or larger tube. Add another 3 ml of DEPC water (total 4 ml of volume).
(§5) Add the following volumes of reagents
(§6) Add 20 μl template mix per reaction (i.e. 20 ng of pOF per reaction or ˜3 nM) • (4) Incubate reaction at room temperature (22-25° C.) for 2 hours. • (5) Stop reaction by adding 50 μl of 170 mM EDTA.
(§7) Final concentration of EDTA is 85 mM. • (6) Prewet filters of Millipore multiscreen assay plate by adding 200 μl of 0.5 M sodium phosphate buffer, pH 7.0 into each well. Let stand at room temperature for 2-3 minutes. • (7) Place the multiscreen filter plate onto a Millipore Manifold and turn on vacuum to allow buffer to flow through. Turn off vacuum. Transfer 80 μl of the reaction product into each well of the filter plate. Let stand for 2-3 minutes. Turn on vacuum to filter reaction product. • (8) Turn off vacuum. Add 200 μl of 0.5 M sodium phosphate buffer, pH 7.0 into each well to wash filter. Turn on vacuum.
(§8) Repeat step (8) three more times. • (9) Remove polypropylene bottom. Spot dry filter at the bottom with paper towel. Air dry filter plate on a bench for 1 hour. Add 40 μl Super Mix scintillant. Seal top of the plate with a tape. Place plate into a Packard carrier or micro-beta carrier. • (10) Count plate using a Packard Topcount or micro-beta counter. Count (for example using Program 10) for ^33P in Top count or ^33P program in micro-beta.
(§9) See, Ferrari et al. 1999. J. Virology 73:1649-1654: “Characterization of soluble Hepatitis C virus RNA-dependent RNA polymerase expressed in E. coli and Takamizawa et al. 1991” and J. Virology 65:1105-1113: “Structure and characterization of the Hepatitis C virus genome isolated from human carriers,” both references are hereby incorporated by reference.

[2] = molecular target: BB7 RNA-dependent RNA polymerase hepatitis C virus protein (Con1 HCV sequence) (Hepatitis C virus genotype 1b, UniProt Q9WMX2); test: Hepatitis C polymerase (BB7) inhibition; assay type: biochemical
Description: For purposes of this invention, the term “BB7” denotes an RNA-dependent RNA polymerase hepatitis C virus protein sequence which is derived from HCV replicon. A discussion of BB7 and related technology can be found in Blight, K. et al. (2000) Science 290:1972-1974. BB7 can be licensed from Apath, LLC (893 North Warson Road, Saint Louis Mo. 63141, USA). BB7 is also referred to as Con1 HCV sequence and discussions of Con1 can be found in the following references: Lohmann, V. et al. (1999) Science 285:110-113; Pietschmann, T. et al. (2001) J. Virol. […]:1252-1264; Lohmann, V. et al. (2001) J. Virol. 75:1437-1449.
as §1, §2, §3, §4, §5, §6, §7, §8, §9

T1 sequence (P26663 2420-2989): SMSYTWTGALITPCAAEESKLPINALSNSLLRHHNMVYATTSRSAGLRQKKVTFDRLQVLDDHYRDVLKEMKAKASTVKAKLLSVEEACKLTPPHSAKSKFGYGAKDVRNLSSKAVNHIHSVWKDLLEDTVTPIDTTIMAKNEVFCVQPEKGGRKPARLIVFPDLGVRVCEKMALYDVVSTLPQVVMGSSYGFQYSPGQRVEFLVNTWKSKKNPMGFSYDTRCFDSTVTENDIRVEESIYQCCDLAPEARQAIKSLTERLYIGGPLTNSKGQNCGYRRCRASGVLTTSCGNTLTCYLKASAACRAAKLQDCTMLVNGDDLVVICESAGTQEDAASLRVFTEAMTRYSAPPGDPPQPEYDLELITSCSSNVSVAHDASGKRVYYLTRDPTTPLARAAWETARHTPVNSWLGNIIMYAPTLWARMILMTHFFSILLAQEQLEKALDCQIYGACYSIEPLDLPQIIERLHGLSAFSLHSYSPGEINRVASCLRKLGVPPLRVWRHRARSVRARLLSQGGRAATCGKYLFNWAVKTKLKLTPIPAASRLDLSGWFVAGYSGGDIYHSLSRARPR
Chain of BB7 RNA-dependent RNA polymerase hepatitis C virus protein (Con1 HCV sequence) (Q9WMX2 2420-3010): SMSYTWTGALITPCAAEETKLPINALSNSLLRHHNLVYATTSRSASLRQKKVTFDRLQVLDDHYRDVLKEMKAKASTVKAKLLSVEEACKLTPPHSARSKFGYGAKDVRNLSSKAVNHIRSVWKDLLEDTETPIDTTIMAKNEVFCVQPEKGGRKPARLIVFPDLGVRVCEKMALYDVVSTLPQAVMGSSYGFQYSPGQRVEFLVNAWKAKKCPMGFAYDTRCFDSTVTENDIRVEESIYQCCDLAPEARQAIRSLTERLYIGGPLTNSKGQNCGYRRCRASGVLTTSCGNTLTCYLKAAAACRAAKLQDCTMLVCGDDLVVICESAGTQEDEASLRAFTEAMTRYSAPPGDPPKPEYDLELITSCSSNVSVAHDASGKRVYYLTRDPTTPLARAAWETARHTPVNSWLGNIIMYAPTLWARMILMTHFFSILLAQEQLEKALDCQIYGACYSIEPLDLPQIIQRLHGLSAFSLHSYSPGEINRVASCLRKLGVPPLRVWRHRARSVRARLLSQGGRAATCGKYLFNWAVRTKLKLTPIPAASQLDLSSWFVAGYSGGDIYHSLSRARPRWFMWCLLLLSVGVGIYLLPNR

CCCC1(CC(=O)O)OCCc2c1[nH]c1c(C)c(COc3ccccc3)cc(C#N)c21 (centres unmarked) [Example 20, (5-Cyano-8-methyl-7-phenoxymethyl-1-propyl-1,3,4,9-tetrahydro-pyrano[3,4-b]indol-1-yl)-acetic acid]
IC50 [1]: 500 to 5000 nM
IC50 [2]: 500 to 5000 nM

CCCC1(CC(=O)O)OCCc2c1[nH]c1c(C)c(COc3cccc(F)c3)cc(C#N)c21 (centres unmarked) [Example 21, [5-Cyano-7-(3-fluoro-phenoxymethyl)-8-methyl-1-propyl-1,3,4,9-tetrahydro-pyrano[3,4-b]indol-1-yl]-acetic acid]
IC50 [1]: < 500 nM
IC50 [2]: < 500 nM

CCCC1(CC(=O)O)OCCc2c1[nH]c1c(C)c(OCC3CC3)cc(C#N)c21 (centres unmarked) [Example 22, (5-Cyano-7-cyclopropylmethoxy-8-methyl-1-propyl-1,3,4,9-tetrahydro-pyrano[3,4-b]indol-1-yl)-acetic acid]
IC50 [1]: < 500 nM
IC50 [2]: < 500 nM

CCC[C@]1(CC(=O)O)OCCc2c1[nH]c1c(C)c(OCc3cc(C)on3)cc(C#N)c21 [Example 23, (R)-[5-Cyano-8-methyl-7-(5-methyl-isoxazol-3-ylmethoxy)-1-propyl-1,3,4,9-tetrahydro-pyrano[3,4-b]indol-1-yl]-acetic acid]
IC50 [1]: < 500 nM
IC50 [2]: < 500 nM

CCCC1(CC(=O)O)OCCc2c1[nH]c1c(C)c(OCc3ccncc3)cc(C#N)c21 (centres unmarked) [Example 24, [5-Cyano-8-methyl-1-propyl-7-(pyridin-4-ylmethoxy)-1,3,4,9-tetrahydro-pyrano[3,4-b]indol-1-yl]-acetic acid]
IC50 [1]: < 500 nM
IC50 [2]: < 500 nM

CCC[C@]1(CC(=O)O)OCCc2c1[nH]c1c(C)c(OCc3cc(C)n(C)n3)cc(C#N)c21 [Example 25, (R)-[5-Cyano-7-(1,5-dimethyl-1H-pyrazol-3-ylmethoxy)-8-methyl-1-propyl-1,3,4,9-tetrahydro-pyrano[3,4-b]indol-1-yl]-acetic acid]
IC50 [1]: < 500 nM
IC50 [2]: < 500 nM

CCC[C@]1(CC(=O)O)OCCc2c1[nH]c1c(C)c(OCCOC(C)C)cc(C#N)c21 [Example 26, (R)-[5-Cyano-7-(2-isopropoxy-ethoxy)-8-methyl-1-propyl-1,3,4,9-tetrahydro-pyrano[3,4-b]indol-1-yl]-acetic acid]
IC50 [1]: < 500 nM
IC50 [2]: < 500 nM

CCC[C@]1(CC(=O)O)OCCc2c1[nH]c1c(C)c(OCCCOC)cc(C#N)c21 [Example 27, (R)-[5-Cyano-7-(3-methoxy-propoxy)-8-methyl-1-propyl-1,3,4,9-tetrahydro-pyrano[3,4-b]indol-1-yl]-acetic acid]
IC50 [1]: < 500 nM
IC50 [2]: < 500 nM

CCC[C@]1(CC(=O)O)OCCc2c1[nH]c1c(C)c(OC[C@@H](C)OC)cc(C#N)c21 [Example 28, (1R,2′R)-[5-Cyano-7-(2-methoxy-propoxy)-8-methyl-1-propyl-1,3,4,9-tetrahydro-pyrano[3,4-b]indol-1-yl]-acetic acid]
IC50 [1]: < 500 nM
IC50 [2]: < 500 nM

CCC[C@]1(CC(=O)O)OCCc2c1[nH]c1c(C)c(OCc3nnc(C)s3)cc(C#N)c21 [Example 29, (R)-[5-Cyano-8-methyl-7-(5-methyl-[1,3,4]thiadiazol-2-ylmethoxy)-1-propyl-1,3,4,9-tetrahydro-pyrano[3,4-b]indol-1-yl]-acetic acid]
IC50 [1]: < 500 nM
IC50 [2]: < 500 nM

CCC[C@]1(CC(=O)O)OCCc2c1[nH]c1c(C)c(OCc3nsc(N(C)C)n3)cc(C#N)c21 [Example 30, (R)-[5-Cyano-7-(5-dimethylamino-[1,2,4]thiadiazol-3-ylmethoxy)-8-methyl-1-propyl-1,3,4,9-tetrahydro-pyrano[3,4-b]indol-1-yl]-acetic acid]
IC50 [1]: < 500 nM
IC50 [2]: < 500 nM

CCCC1(C(=O)O)OCCc2c1[nH]c1c(C)c(OCCOC)cc(C#N)c21 (centres unmarked) [Example 31, 5-Cyano-7-(2-methoxy-ethoxy)-8-methyl-1-propyl-1,3,4,9-tetrahydro-pyrano[3,4,-b]indole-1-carboxylic acid]
IC50 [1]: 500 to 5000 nM
IC50 [2]: 500 to 5000 nM

CCCC1(C(=O)O)OCCc2c1[nH]c1c(C)c(OCc3cc(C)on3)cc(C#N)c21 (centres unmarked) [Example 32, 5-Cyano-8-methyl-7-(5-methyl-isoxazol-3-ylmethoxy)-1-propyl-1,3,4,9-tetrahydro-pyrano[3,4,-b]indole-1-carboxylic acid]
IC50 [1]: < 500 nM
IC50 [2]: < 500 nM

CCC(C)C1(CC(=O)O)OCCc2c1[nH]c1c(C)c(OCc3cc(C)n(C)n3)cc(C#N)c21 [Example 36, (1R*,10S)-[1-sec-Butyl-5-cyano-7-(1,5-dimethyl-1H-pyrazol-3-ylmethoxy)-8-methyl-1,3,4,9-tetrahydro-pyrano[3,4-b]indol-1-yl]-acetic acid]
IC50 [1]: < 500 nM
IC50 [2]: < 500 nM

CCCC1(C(=O)O)OCCc2c1[nH]c1c(C)c(OCc3ccncc3)cc(C#N)c21 (centres unmarked) [Example 37]
IC50 [1]: < 500 nM
IC50 [2]: < 500 nM

CCCC1(CC(=O)O)OCCc2c1[nH]c1c(C)c(OCc3ccncc3)cc(C#N)c21 (centres unmarked) [Example 38]
IC50 [1]: < 500 nM
IC50 ([2]; read-out: BB7 IC50, BB7 (Con1) NS5B): < 500 nM

CCCC1(CC(=O)O)OCCc2c1[nH]c1c(C)c(O[C@@H]3CCOC3)cc(C#N)c21 (some centres unmarked) [Example 39]
IC50 [1]: < 500 nM
IC50 ([2]; BB7 (Con1) NS5B, read-out: BB7 IC50): < 500 nM

CCCC1(CC(=O)O)OCCc2c1[nH]c1c(C)c(O[C@H]3CCOC3)cc(C#N)c21 (some centres unmarked) [Example 40]
IC50 [1]: < 500 nM
IC50 [2]: < 500 nM

CCCC1(CC(=O)O)OCCc2c1[nH]c1c(C)c(OCc3cccnc3)cc(C#N)c21 (centres unmarked) [Example 41]
IC50 [1]: < 500 nM
IC50 [2]: < 500 nM

CCCC1(CC(=O)O)OCCc2c1[nH]c1c(C)c(O[C@@H]3CCNC3)cc(C#N)c21 (some centres unmarked) [Example 42]
IC50 [1]: < 500 nM
IC50 [2]: 500 to 5000 nM

CCCC1(CC(=O)O)OCCc2c1[nH]c1c(C)c(OCCOC)cc(C#N)c21 (centres unmarked) [Example 43]
IC50 [1]: < 500 nM
IC50 [2]: < 500 nM

CCC[C@]1(CC(=O)O)OCCc2c1[nH]c1c(C)c(OCCOC)cc(C#N)c21 [Example 44]
IC50 [1]: < 500 nM
IC50 [2]: < 500 nM

CCCC1(CC(=O)O)OCCc2c1[nH]c1c(C)c(O)cc(C#N)c21 (centres unmarked) [Example 45]
IC50 [1]: < 500 nM
IC50 [2]: < 500 nM

CCC[C@]1(CC(=O)O)OCCc2c1[nH]c1c(C)c(O)cc(C#N)c21 [Example 46]
IC50 [1]: < 500 nM
IC50 [2]: < 500 nM

CCC[C@@]1(CC(=O)O)OCCc2c1[nH]c1c(C)c(O)cc(C#N)c21 [Example 47]
IC50 [1]: > 5000 nM
IC50 [2]: 500 to 5000 nM

CCCC1(CC(=O)O)OCCc2c1[nH]c1c(C)c(OCCC3CC3)cc(C#N)c21 (centres unmarked) [Example 48]
IC50 [1]: < 500 nM
IC50 [2]: < 500 nM

CCCC1(CC(=O)O)OCCc2c1[nH]c1c(C)c(OCc3ccccn3)cc(C#N)c21 (centres unmarked) [Example 49]
IC50 [1]: < 500 nM
IC50 [2]: < 500 nM

CCCC1(CC(=O)O)OCCc2c1[nH]c1c(C)c(OCCSC)cc(C#N)c21 (centres unmarked) [Example 50]
IC50 [1]: < 500 nM
IC50 [2]: < 500 nM
